Measurements from patent publication US12594293B2, “Use of 6-thio-dG to treat therapy-resistant telomerasepositive pediatric brain tumors” (The Board of Regents of The University of Texas System, priority 2018, dated 2026).

Tests used:
[1] = system: HFF+hTERT cells; assay: Immunofluorescence and telomere FISH (TIF) assay; type: cell-based, human; conditions: for effect on 6-thio-dG-induced TIFs: 10 μM of ATM or 50 nM ATR specific inhibitor 2 hours prior to and with 3 μM 6-thio-dG for 48 hours
Protocol: Immunofluorescence and telomere FISH assay. Cells were fixed with 4% paraformaldehyde (PFA) for 15 minutes. Cells were then washed, permeabilized with 0.5% Triton-X-100 in PBS, blocked with 5% donkey serum and 0.3% Triton X-100 in TBS and incubated with primary antibodies against γH2A.X (1:500, rabbit), or cleaved caspase-3 (1:400, rabbit) (Cell Signaling); and/or TRF2 (1:200) (Mouse; NOVUS), as applicable, for overnight followed by TBST wash (×3) next day. Corresponding secondary antibodies were added (Alexa-Fluor 488- or 594-conjugated donkey anti-rabbit, or anti-mouse (1:500) (Jackson ImmunoResearch) for 1 hour and washed with TBS (×3) before mounting. For telomere-FISH, fixed and permeabilized cells were dehydrated with a graded ethanol concentration series, air-dried and covered with hybridization solution (70% formamide, 0.5% Blocking Reagent (Roche Diagnostics) diluted in 100 mM maleic acid and 150 mM sodium chloride, and 10 mM Tris (pH 7.5)) with 300 ng/mL PNA(CCCTAA)3-Cy3 (SEQ ID NO: 1) (Biosynthesis, USA), and denatured for 6 minutes at 84° C. followed by hybridization for at least two hours at room temperature. Cells were washed three times with 70% formamide and 10 mM Tris (pH 7.5) and three times with TBS. Finally, they were embedded with mounting media with DAPI (Vector Laboratories H1200).

[2] = system: telomerase; assay: Telomerase activity assay (TRAP) in treated HFF+hTERT cells; type: cell-based, human; conditions: IMT 2 μM
Protocol: Telomerase activity assay. Telomerase activity was assayed using the TRAPeze Telomerase Detection Kit (Millipore). Cell extracts were prepared according to the manufacturer's protocol. 50-100 ng of total protein was used to assess the telomerase activity by performing polyacrylamide gel (12.5%) electrophoresis.

[3] = system: HFF + hTERT; assay: Cell growth assay (viable cell count, trypan blue exclusion); type: cell-based, human; conditions: pre-treated with IMT 2 μM 3 days, then 6-thio-dG 3 μM 3 days
[4] = system: CD138-negative Multiple Myeloma Cancer Stem Cells; conditions: cells from bone marrow aspirates of patients with multiple myeloma; cited from earlier work
[5] = system: CD138-positive and CD138-negative cancer stem cells; conditions: by five weeks; cited from earlier work
[6] = children with recurrent CNS malignancies; thrombocytopenia that led to bleeding; cited from earlier work

For `O=c1cc(-c2cccc3c2Sc2ccccc2S3)oc(N2CCOCC2)c1` [ATM inhibitor, reference compound], which “effect on 6-thio-dG-induced TIFs” value [1] is on record?
The value was “reduction in the number of cells with TIFs”.

With `CNCc1ccc(-c2cc(-c3nc(-c4ccc(S(=O)(=O)C(C)C)cc4)cnc3N)on2)cc1` [ATR inhibitor, reference compound] as the compound, how does the “effect on 6-thio-dG-induced TIFs” value [1] read?
Its value is “reduction in the number of cells with TIFs”.

For imetelstat, which “telomerase activity (TRAP assay)” value [2] is on record?
The value was “inhibition of telomerase activity”.

And the “inhibition of cell growth by 6-thio-dG in the combination treatment” value [3]?
Its value is “markedly reduced”.

What about the “in vitro clonogenic growth” value [4] of the same compound?
Its value is “inhibited the in vitro clonogenic growth”.

What about the colony forming potential [5] of the same compound?
Its colony forming potential is “eliminated the colony forming potential”.

What about the “tolerability and efficacy of regimen” value [6] of the same compound?
Its value is “intolerable and ineffective”.

What about the “effect on 6-thio-dG-induced TIF formation” value ([1]; IMT 2 μM pre-treatment, then 6-thio-dG 3 μM 3 days) of the same compound?
Its value is “inhibited 6-thio-dG-induced TIF formation”.

What about the “genomic DNA damage (γH2AX foci) in cells treated with 6-thio-dG” value ([1]; IMT 2 μM with 6-thio-dG 3 μM 3 days) of the same compound?
The value was “reduced the genomic DNA damage”.
